The text below walks through data of patent US20190327974A1, “SYNERGISTS FOR IMPROVED PESTICIDES” (priority 2017, published 2019).

The structures appear in SMILES notation.

Experiment [1] deals with Lucilia cuprina larvae, field strain Tara resistant to diazinon. Put plainly: Lucilia cuprina larval bioassay (pupation rate), field strain. Format: in vivo. The source says: Diazinon resistance is typically associated with the Gly137Asp mutation/resistance allele. […] This is consistent with previous results showing that duplications of the chromosomal region containing αE7 have occurred, meaning that resistant strains now carry copies of both WT and Glyl37Asp LcαE7.
(§1) Two strains of L. cuprina were used: 1) a laboratory reference drug-susceptible strain, LS, derived from collections in the Australian Capital Territory over 40 years ago, with no history of exposure to insecticides; and 2) a field-collected strain, Tara, resistant to diazinon and diflubenzuron (Levot, G. W. & Sales, N. New high level resistance to diflubenzuron detected in the Australian sheep blowfly, Lucilia cuprina (Wiedemann) (Diptera: Calliphoridae). Gen. Appl. Entomol. 31, 43-46 (2002)). The LcαE7 gene was sequenced in each of the strains. Briefly, genomic DNA was prepared from 20 adult female flies from each strain using the DNeasy Blood and Tissue kit (Qiagen). PCR was performed with primers specific to the LcαE7 gene, and the product was cloned into a pGEM-T EASY vector (Promega). Eight clones of the susceptible strain and 10 clones of the resistant strain were sequenced using M13 forward and reverse primers.
The effect of compounds 2, 3, 5, 3.9 and 3.10 on the development of blowfly larvae in the presence of diazinon/malathion was assessed using a bioassay system in which larvae were allowed to develop from the first instar stage until pupation on cotton wool impregnated with diazinon/malathion over a range of concentrations, in the presence or absence of the compounds at constant concentrations (Kotze, A. C. et al. Histone deacetylase enzymes as drug targets for the control of the sheep blowfly, Lucilia cuprina. Int. J. Parasitol. Drugs Drug Resist. 5, 201-208 (2015)). Each experiment utilized 50 larvae at each diazinon/malathion concentration. Experiments were replicated three times for diazinon, and twice for malathion. The insecticidal effects were defined by measuring the pupation rate. […] Compounds were also without diazinon or malathion at 1 mg per assay.

For experiment [2], the system named is Lucilia cuprina larvae, laboratory susceptible strain (LS). Put plainly: Blowfly larvae pupation bioassay, laboratory strain, diazinon. Format: in vivo. Here is the method: Inhibitor efficacy was determined by treating larvae with diazinon over a range of concentrations, in the presence or absence of the compounds at constant concentrations, and comparing pupation rates.
as §1
Each experiment utilized 50 larvae at each diazinon/malathion concentration. Experiments were replicated three times for diazinon, and twice for malathion. The insecticidal effects were defined by measuring the pupation rate. […]

In the case of `OB(O)c1cc(Br)cc(Oc2ccccc2)c1` [Compound 3.10, 3-Bromo-5-phenoxyfenylboronic acid], the “reduction of diazinon EC50 compared to a diazinon only control” value in experiment [1] (field strain) is 12 fold. The “sensitivity of field strain to diazinon compared to the laboratory strain treated with only diazinon” value in experiment [1] (fold more sensitive) turned out to be 4 fold.
In the case of `OB(O)c1cc(Br)cc(N2CCOCC2)c1` [Compound 3.1], the “reduction of diazinon EC50 compared to diazinon only control” value in experiment [2] amounted to 5.7 fold.
